In patent publication US11384079B2, “6-5 fused rings as C5a inhibitors” (CHEMOCENTRYX, INC., priority 2017, dated 2022) one finds IC50 data, which are given here for 38 compounds.

Some results are limits rather than exact numbers.

The test addresses T1, C5aR (Homo sapiens, UniProt P21730).
T1 construct: U937 cells are a monocytic cell line which express C5aR; host or cells: U937 cells (cAMP treated) or isolated neutrophils
T1 sequence (P21730 1-350): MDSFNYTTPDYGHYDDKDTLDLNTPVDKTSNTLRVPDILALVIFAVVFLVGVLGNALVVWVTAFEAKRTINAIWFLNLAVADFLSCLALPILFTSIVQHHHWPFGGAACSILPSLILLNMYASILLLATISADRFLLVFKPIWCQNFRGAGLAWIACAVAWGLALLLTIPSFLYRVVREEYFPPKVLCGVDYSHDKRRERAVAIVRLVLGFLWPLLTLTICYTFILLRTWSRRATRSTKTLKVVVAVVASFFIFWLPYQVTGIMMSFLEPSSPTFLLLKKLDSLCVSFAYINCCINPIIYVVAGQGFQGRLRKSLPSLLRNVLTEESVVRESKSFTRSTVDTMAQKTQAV
In words: chemotaxis assay (C5aR mediated migration). Format: cell-based. The conditions noted are these: migration of U937 or neutrophil cells toward C5a (0.03 nM), 1.5 hours at 37° C., read-out: Mig IC50. Summed up: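 Migration of cAMP-treated U937 cells (0.5 mM overnight), or of human or murine neutrophils, toward C5a was measured through 5 μm polycarbonate filters in HBSS with 1% FBS. SDF-1α served as a specificity control. After 1.5 h at 37 °C, lower-chamber cells were counted directly or by CyQuant.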

In the case of `Cc1cccc(OCC(C)C)c1-n1nc2c(c1-c1ccc3[nH]ccc3c1)CN(Cc1cc(Cl)ccc1C(F)(F)F)CC2` [Example 1.203], the IC50 – broadly, the concentration needed to halve the response being measured – lay within 5 to 50 nM. In the case of `Cc1cccc(OCC(C)C)c1-n1nc2c(c1-c1ccc3[nH]cc(C)c3c1)CN(c1ncc(C(F)(F)F)cc1F)CC2` [Example 1.204] it was 50 to 500 nM. With `Cc1cccc(OCC(C)C)c1-n1nc2c(c1-c1cccc3[nH]ccc13)CN(Cc1cc(Cl)ccc1C(F)(F)F)CC2` [Example 1.205], the IC50 lay in the range of 5 to 50 nM.

With `Cc1cccc(OCC(C)C)c1-n1nc2c(c1-c1ccc3[nH]ccc3c1)CN(C(C)CC(F)(F)F)CC2` (centres unmarked) [Example 1.206], the IC50 fell in the range of 5 to 50 nM. In the case of `CCC(CC)N1CCc2nn(-c3c(C)cccc3OCC(C)C)c(-c3ccc4[nH]ccc4c3)c2C1` [Example 1.207] it was 5 to 50 nM. As for `CCc1cccc(CC)c1-n1nc2c(c1-c1ccc3[nH]ccc3c1)CN(C1CCOCC1)CC2` [Example 1.208], the IC50 lay in the range of 50 to 500 nM.

Regarding `CCc1cccc(CC)c1-n1nc2c(c1-c1ccc3[nH]ccc3c1)CN(C1CCCC1)CC2` [Example 1.209], the IC50 was 5 to 50 nM. `Cc1cccc(OCC(C)C)c1-n1nc2c(c1-c1ccc3[nH]ccc3c1)CN(c1nc(C(C)C)ns1)CC2` [Example 1.210]: the IC50 is 5 to 50 nM. In the case of `CCc1cccc(CC)c1-n1nc2c(c1-c1ccc3[nH]ccc3c1)CN(C(C)C(C)C)CC2` (centres unmarked) [Example 1.211], the IC50 lay in the range of 5 to 50 nM. On to `CCc1cccc(CC)c1-n1nc2c(c1-c1ccc3[nH]ccc3c1)CN(C(CC)CC)CC2` [Example 1.212], for which the IC50 was < 5 nM. On to `C=C(C)c1nsc(N2CCc3nn(-c4c(C)cccc4OCC(C)C)c(-c4ccc5[nH]ccc5c4)c3C2)n1` [Example 1.213], for which the IC50 lay in the range of 5 to 50 nM. In the case of `Cc1cccc(OCC(C)C)c1-n1nc2c(c1-c1ccc3[nH]ccc3c1)CN(c1nc(Cl)ns1)CC2` [Example 1.214], the IC50 was 5 to 50 nM. Take `Cc1cccc(OCC(C)C)c1-n1nc2c(c1-c1ccc3[nH]nc(C)c3c1)CN(c1ncc(C(F)(F)F)cc1F)CC2` [Example 1.215]: the IC50 was > 500 nM. Consider `Cc1cccc(OCC(C)C)c1-n1nc2c(c1-c1ccc3[nH]ccc3c1)CN(c1ncc(C(F)(F)F)cc1Cl)CC2` [Example 1.216], for which the IC50 was 5 to 50 nM. On to `Cc1cccc(OCC(C)C)c1-n1nc2c(c1-c1ccnc3[nH]ccc13)CN(c1ncc(C(F)(F)F)cc1F)CC2` [Example 1.217], for which the IC50 lay in the range of 50 to 500 nM. As for `Cc1cccc(OCC(C)C)c1-n1nc2c(c1-c1cc(F)c3[nH]ccc3c1)CN(c1ncc(C(F)(F)F)cc1F)CC2` [Example 1.218], the IC50 was < 5 nM. As to `FC(F)(F)c1ccccc1CN1CCc2nn(-c3c(Cl)cccc3Cl)c(-c3ccc4[nH]ccc4c3)c2C1` [Example 1.219], the IC50 was in the range of 5 to 50 nM. Take `CCc1cccc(CC)c1-n1nc2c(c1-c1ccc3[nH]cc(Cl)c3c1)CN(Cc1cc(F)ccc1Cl)CC2` [Example 1.220]: the IC50 fell in the range of 5 to 50 nM. Regarding `Cc1cccc(C)c1-n1nc2c(c1-c1ccc3[nH]ccc3c1)CN(Cc1ccccc1C(F)(F)F)CC2` [Example 1.221], the IC50 was in the range of 5 to 50 nM.

With `Cc1cccc(OCC(C)C)c1-n1nc2c(c1-c1cccc3[nH]ccc13)CN(Cc1ccccc1C(F)(F)F)CC2` [Example 1.222], the IC50 lay within 5 to 50 nM.

For the compound `CCc1cccc(CC)c1-n1nc2c(c1-c1ccc3[nH]ccc3c1)CN(Cc1c(Cl)cccc1C(F)(F)F)CC2` [Example 1.223], the IC50 was < 5 nM. As for `Cc1nc2cc(-c3c4c(nn3-c3c(C)cccc3OCC(C)C)CCN(c3ncc(C(F)(F)F)cc3F)C4)ccc2[nH]1` [Example 1.224], the IC50 is > 500 nM. The figure for `Cc1cccc(OCC(C)C)c1-n1nc2c(c1-c1ccc3[nH]nc(N)c3c1)CN(c1ncc(C(F)(F)F)cc1F)CC2` [Example 1.225] is > 500 nM; for `CCc1cccc(CC)c1-n1nc2c(c1-c1ccc3[nH]ccc3c1)CN(Cc1cc(Cl)ccc1C(F)(F)F)CC2` [Example 1.226] it is < 5 nM; for `CCc1cccc(CC)c1-n1nc2c(c1-c1ccc3[nH]ccc3c1)CN(Cc1cc(Cl)ccc1Cl)CC2` [Example 1.227] it is < 5 nM. On to `Cc1cccc(OCC(C)C)c1-n1nc2c(c1-c1ccc3cc[nH]c3c1)CN(c1ncc(C(F)(F)F)cc1F)CC2` [Example 1.228], for which the IC50 was 50 to 500 nM. In the case of `Cc1cccc(OCC(C)C)c1-n1nc2c(c1-c1cccc3[nH]ccc13)CN(c1ncc(C(F)(F)F)cc1F)CC2` [Example 1.229] it was 5 to 50 nM; in that of `CCc1cccc(CC)c1-n1nc2c(c1-c1ccc3[nH]ccc3c1)CN(Cc1cc(F)ccc1Cl)CC2` [Example 1.230], < 5 nM; in that of `CCc1cccc(CC)c1-n1nc2c(c1-c1ccc3[nH]ccc3c1)CN(Cc1ccccc1C(F)(F)F)CC2` [Example 1.231], < 5 nM. Turning to `Cc1cccc(OCC(C)C)c1-n1nc2c(c1-c1ccc3[nH]ccc3c1)CN(c1ncc(C(F)(F)F)cc1F)CC2` [Example 1.232], the IC50 is < 5 nM. In the case of `Cc1cccc(OCC(C)C)c1-n1nc2c(c1-c1ccc3[nH]ccc3c1)CN(C(C)c1ccccc1C(F)(F)F)CC2` (centres unmarked) [Example 1.233] it was < 5 nM; in that of `Cc1cccc(OCC(C)C)c1-n1nc2c(c1-c1ccc3[nH]ccc3c1)CN(Cc1ccc(C(F)(F)F)cc1C(F)(F)F)CC2` [Example 1.234], 5 to 50 nM.

For `Cc1cccc(OCC(C)C)c1-n1nc2c(c1-c1ccc3[nH]ccc3c1)CN(Cc1ccccc1C(F)(F)F)CC2` [Example 1.235], the IC50 was < 5 nM. Take `Cc1cccc(OCC(C)C)c1-n1nc2c(c1-c1ccc3cc[nH]c3c1)CN(CC(C)(C)C)CC2` [Example 1.236]: the IC50 was in the range of 50 to 500 nM. With `Cc1cccc(OCC(C)C)c1-n1nc2c(c1-c1ccc3[nH]ccc3c1)CN(CC(C)(C)C)CC2` [Example 1.237], the IC50 is < 5 nM. Consider `Cc1cccc(OCC(C)C)c1-n1nc2c(c1-c1ccc3[nH]ccc3c1)CN(C(=O)OCc1ccccc1)CC2` [Example 1.238], for which the IC50 was 5 to 50 nM.

`Cc1cccc(C)c1-n1nc2c(c1-c1ccc3[nH]ccc3c1)CN(CC(C)(C)C)CC2` [Example 1.239]: the IC50 was in the range of 5 to 50 nM. In the case of `Cc1cccc(C)c1-n1nc2c(c1-c1ccc3[nH]ccc3c1)CN(C(=O)OC(C)(C)C)CC2` [Example 1.240] it was 5 to 50 nM.
